Several values for one entry are separate records, joined by “and”; a condition that tells them apart may be missing. Equal entries are not always repeated. Where two headings read alike, the source gives them in different places.
Experiment: Comparative pharmacokinetic profiling of Forms 1 and 2 by inhalation administration to rats
Type: in vivo, male RccHan:WIST rat
Details: for Tmax: from start of exposure; for Drug Concentration in Animal by No. (plasma): individual animals; for AUCt dose normalised: AUCt of Form 2 normalised to dose achieved for Form 1 (2.48 mg/kg), 2.48 mg/kg; for time up to which plasma concentrations remained quantifiable: after the start of exposure (last sampling time)
Excerpt: A study was undertaken to compare the time-course of unchanged drug concentrations in plasma following a single inhalation dose of either Form 1 or Form 2 in rats.
The male RccHan™:WIST rat was considered a suitable species and strain because of its acceptance by regulatory agencies. The inhalation route of administration was chosen to simulate the conditions of clinical administration. A total of 14 of animals (six animals per group with two spare animals), 10 to 12 weeks of age and weighing 306 to 341 g at the start of drug treatment, were used in the study. Treatment consisted of a single 2 hour inhalation exposure with a nebulised formulation of either micronised Form 1 (98.94% purity) to Group 1 animals or micronised Form 2 (98.10% purity) to Group 2 animals. The pharmacokinetic parameters of the two polymorphic forms were determined to support pharmacology and toxicology studies in animals and clinical studies in man.
Suspensions were manufactured by first preparing a concentrated solution of the surfactants (wetting solution) and a saline solution. These were then used to make the vehicle. A saline solution was prepared as follows. Sodium chloride (50 g) was weighed into a 5000 mL volumetric flask, made up to volume with water, stirred with a magnetic stirrer for 10 min and then passed through a 0.22 μm membrane filter. Wetting solution was prepared as follows. Lipoid S100 (10 g) was weighed into a 2000 mL Duran bottle, 1000 g of propylene glycol was added and the mixture was stirred on a Silverson mixer equipped with a 1″ high shear screen for 1 min at 8000 rpm and then passed through a 0.22 μm membrane filter. Vehicle was prepared as follows. The wetting solution (500 mL) was transferred into a 5000 mL volumetric flask, made to volume with saline solution, stirred with a magnetic stirrer for 10 min and then passed through a 0.22 μm membrane filter.
A 1000 mL batch of 4 mg/mL suspension of Compound I was prepared as follows. Compound I (4.00 g) was weighed into a small beaker, 100 mL of wetting solution was added and the mixture was stirred with a Silverson mixer equipped with a 1″ high shear screen for 5 min at 8000 rpm. The mixture was then transferred into a 5000 mL Duran bottle using saline solution and stirred using a Silverson mixer equipped with a 1″ high shear screen for 5 min at 8000 rpm, after which it was stored between 2 and 8° C. Higher or lower strength suspensions (range 0.2 to 20 mg/mL) were prepared by adjusting the input weight of API as appropriate for higher mg/mL suspensions or by further diluting with vehicle for lower mg/mL suspensions. All formulations were magnetically stirred for at least 30 min, and assessed visually prior to administration.
Rats were acclimatised to the inhalation dosing procedure for three consecutive days prior to dosing. Animals were treated with the test substance by aerosol inhalation administration for 120 min via snout only exposure, at a target aerosol concentration of 25.2 μg/L. The estimations of inhaled dose from an exposure duration of 2 hr and an assumed body weight of 300 g were calculated using the formula:
[formula] where: C is the aerosol concentration (μg/L); RMV is the respiratory minute volume (L/min); D is the duration of exposure (120 mins) and BW is the group mean body weight (kg). The mean achieved aerosol concentrations, estimated inhaled dose and particle size distribution (PSD) summary data are presented below. (Table 14).
Venous blood samples (0.3 mL) were taken from the tail vein of animals and samples collected after dosing (2 hr from the start of dose administration) and thereafter at times 3, 4, 6, 8, 12, 24, 28, 32, 36 and 48 hr following treatment. Samples were treated with K2EDTA anticoagulant, spun at 2000 g for 10 min at 4° C. and then stored frozen (−20° C.±10) whilst awaiting analysis. Plasma samples were subsequently analysed for Compound I by LGC using a validated LC-MS/MS method. […]

[1] = male rats, inhalation, nominal 2.2 mg/kg, 3 hr from start of exposure
[2] = male rats, inhalation, nominal 2.2 mg/kg, 4 hr from start of exposure
[3] = male rats, inhalation, nominal 2.2 mg/kg, 6 hr from start of exposure
[4] = male rats, inhalation, nominal 2.2 mg/kg, 8 hr from start of exposure
[5] = male rats, inhalation, nominal 2.2 mg/kg, 8 hr, group mean
[6] = male rats, inhalation, nominal 2.2 mg/kg, 12 hr from start of exposure
[7] = male rats, inhalation, nominal 2.2 mg/kg, 24 hr from start of exposure
[8] = male rats, inhalation, nominal 2.2 mg/kg, 28 hr from start of exposure
[9] = male rats, inhalation, nominal 2.2 mg/kg, 32 hr from start of exposure
[10] = male rats, inhalation, nominal 2.2 mg/kg, 32 hr, group mean
[11] = male rats, inhalation, nominal 2.2 mg/kg, 36 hr from start of exposure
[12] = male rats, inhalation, nominal 2.2 mg/kg, 36 hr, group mean
[13] = male rats, inhalation, nominal 2.2 mg/kg, 48 hr from start of exposure
[14] = male rats, inhalation, nominal 2.2 mg/kg, IAD (immediately after dosing), group mean
[15] = male rats, inhalation, nominal 2.2 mg/kg, IAD (immediately after dosing)

Cc1cc(N2CCN(c3ccc(C(=O)Nc4ccc(F)cc4)cc3)CC2)ccc1OC[C@@H]1CO[C@@](Cn2cncn2)(c2ccc(F)cc2F)C1 [Form 1, 4-(4-(4-(((3R,5R)-5-((1H-1,2,4-triazol-1-yl)methyl)-5-(2,4-difluorophenyl)tetrahydrofuran-3-yl)methoxy)-3-methylphenyl)piperazin-1-yl)-N-(4-fluorophenyl)benzamide]
Tmax (RccHan:WIST, rat, plasma, inhaled or intranasal, male rats, single 2 hr inhalation, nominal dose 2.2 mg/kg, read-out: Tmax): 6 h
Drug Concentration in Animal by No. (plasma) [1]: 5.31 ng/mL and 4.35 ng/mL and 2.41 ng/mL
Drug Concentration in Animal by No. (plasma) [2]: 4.73 ng/mL and 6.32 ng/mL and 3.78 ng/mL
Drug Concentration in Animal by No. (plasma) [3]: 5.38 ng/mL and 3.97 ng/mL and 5.49 ng/mL
Drug Concentration in Animal by No. (plasma) [4]: 3.28 ng/mL and 2.88 ng/mL
Drug Concentration Mean (plasma) [5]: 3.08 ng/mL
Drug Concentration in Animal by No. (plasma) [6]: 4.05 ng/mL and 3.64 ng/mL
Drug Concentration in Animal by No. (plasma) [7]: 2.47 ng/mL and 3.00 ng/mL and 3.85 ng/mL and 2.75 ng/mL and 2.02 ng/mL and 3.03 ng/mL
Drug Concentration in Animal by No. (plasma) [8]: 1.85 ng/mL and 2.22 ng/mL and 3.92 ng/mL and 1.87 ng/mL and 2.04 ng/mL
Drug Concentration in Animal by No. (plasma) [9]: 1.36 ng/mL and 1.85 ng/mL and 2.79 ng/mL and 1.66 ng/mL and 2.20 ng/mL and 1.32 ng/mL
Drug Concentration Mean (plasma) [10]: 1.86 ng/mL
Drug Concentration in Animal by No. (plasma) [11]: 1.21 ng/mL and 1.36 ng/mL and 1.74 ng/mL and 1.70 ng/mL and 1.01 ng/mL and 1.80 ng/mL
Drug Concentration Mean (plasma) [12]: 1.47 ng/mL
Drug Concentration in Animal by No. (plasma) [13]: 1.10 ng/mL and 1.45 ng/mL and 1.28 ng/mL and 1.26 ng/mL and 1.19 ng/mL
Drug Concentration Mean (plasma) [14]: 1.11 ng/mL
Drug Concentration in Animal by No. (plasma) [15]: 1.16 ng/mL and 0.826 ng/mL and 1.35 ng/mL
AUCt dose normalised (male rats, inhalation): 122 ng·h/mL
time up to which plasma concentrations remained quantifiable (male rats, inhalation): 48 h
Cmax (male, RccHan:WIST, rat, plasma, inhaled or intranasal, 2.2 mg/kg, single 2 hr inhalation of nebulised aqueous suspension, nominal dose 2.2 mg/kg, read-out: Cmax (maximum mean plasma concentration)): 4.95 ng/mL
AUC(0-t) (male, RccHan:WIST, rat, plasma, inhaled or intranasal, 2.2 mg/kg, single 2 hr inhalation, nominal dose 2.2 mg/kg, 0-48 hr): 122 ng·h/mL
concentration at 3 h (male, RccHan:WIST, rat, plasma, inhaled, 2.2 mg/kg, inhalation, nominal 2.2 mg/kg, 3 hr, group mean, read-out: Drug Concentration Mean (plasma)): 4.02 ng/mL
concentration at 4 h (male, RccHan:WIST, rat, plasma, inhaled, 2.2 mg/kg, inhalation, nominal 2.2 mg/kg, 4 hr, group mean, read-out: Drug Concentration Mean (plasma)): 4.94 ng/mL
concentration at 6 h (male, RccHan:WIST, rat, plasma, inhaled, 2.2 mg/kg, inhalation, nominal 2.2 mg/kg, 6 hr, group mean, read-out: Drug Concentration Mean (plasma)): 4.95 ng/mL
concentration at 12 h (male, RccHan:WIST, rat, plasma, inhaled, 2.2 mg/kg, inhalation, nominal 2.2 mg/kg, 12 hr, group mean, read-out: Drug Concentration Mean (plasma)): 3.85 ng/mL
concentration at 24 h (male, RccHan:WIST, rat, plasma, inhaled, 2.2 mg/kg, inhalation, nominal 2.2 mg/kg, 24 hr, group mean, read-out: Drug Concentration Mean (plasma)): 2.85 ng/mL
concentration at 28 h (male, RccHan:WIST, rat, plasma, inhaled, 2.2 mg/kg, inhalation, nominal 2.2 mg/kg, 28 hr, group mean, read-out: Drug Concentration Mean (plasma)): 2.38 ng/mL
concentration at 48 h (male, RccHan:WIST, rat, plasma, inhaled, 2.2 mg/kg, inhalation, nominal 2.2 mg/kg, 48 hr, group mean, read-out: Drug Concentration Mean (plasma)): 1.26 ng/mL

Cc1cc(N2CCN(c3ccc(C(=O)Nc4ccc(F)cc4)cc3)CC2)ccc1OC[C@@H]1CO[C@@](Cn2cncn2)(c2ccc(F)cc2F)C1 [Form 2, 4-(4-(4-(((3R,5R)-5-((1H-1,2,4-triazol-1-yl)methyl)-5-(2,4-difluorophenyl)tetrahydrofuran-3-yl)methoxy)-3-methylphenyl)piperazin-1-yl)-N-(4-fluorophenyl)benzamide]
dose normalised AUCt, fold higher than Form 1 (male rats, inhalation): 1.7 fold
Drug Concentration in Animal by No. (plasma) [1]: 8.95 ng/mL and 5.40 ng/mL and 6.01 ng/mL
Drug Concentration Mean (plasma) (male rats, inhalation, nominal 2.2 mg/kg, 3 hr, group mean): 6.79 ng/mL
Drug Concentration in Animal by No. (plasma) [2]: 7.53 ng/mL and 9.31 ng/mL and 8.88 ng/mL
Drug Concentration Mean (plasma) (male rats, inhalation, nominal 2.2 mg/kg, 4 hr, group mean): 8.57 ng/mL
Drug Concentration in Animal by No. (plasma) [3]: 11.8 ng/mL and 5.38 ng/mL
Drug Concentration Mean (plasma) (male rats, inhalation, nominal 2.2 mg/kg, 6 hr, group mean): 8.59 ng/mL
Drug Concentration in Animal by No. (plasma) [4]: 6.85 ng/mL and 5.90 ng/mL and 6.79 ng/mL
Drug Concentration Mean (plasma) [5]: 6.51 ng/mL
Drug Concentration in Animal by No. (plasma) [6]: 10.7 ng/mL and 4.57 ng/mL and 5.84 ng/mL
Drug Concentration Mean (plasma) (male rats, inhalation, nominal 2.2 mg/kg, 12 hr, group mean): 7.04 ng/mL
Drug Concentration in Animal by No. (plasma) [7]: 11.5 ng/mL
Drug Concentration in Animal by No. (plasma) [8]: 8.15 ng/mL and 3.17 ng/mL and 3.32 ng/mL and 4.15 ng/mL and 2.94 ng/mL and 2.93 ng/mL
Drug Concentration Mean (plasma) (male rats, inhalation, nominal 2.2 mg/kg, 28 hr, group mean): 4.11 ng/mL
Drug Concentration in Animal by No. (plasma) [9]: 7.72 ng/mL and 3.50 ng/mL and 3.33 ng/mL and 4.05 ng/mL and 2.75 ng/mL and 2.51 ng/mL
Drug Concentration Mean (plasma) [10]: 3.98 ng/mL
Drug Concentration in Animal by No. (plasma) [11]: 6.28 ng/mL and 2.43 ng/mL (2×) and 2.54 ng/mL and 3.59 ng/mL and 2.49 ng/mL
Drug Concentration Mean (plasma) [12]: 3.29 ng/mL
Drug Concentration in Animal by No. (plasma) [13]: 3.78 ng/mL and 1.79 ng/mL and 1.89 ng/mL and 2.52 ng/mL and 1.83 ng/mL and 1.91 ng/mL
Drug Concentration Mean (plasma) (male rats, inhalation, nominal 2.2 mg/kg, 48 hr, group mean): 2.29 ng/mL
Drug Concentration Mean (plasma) [14]: 2.66 ng/mL
Drug Concentration in Animal by No. (plasma) [15]: 2.24 ng/mL and 2.59 ng/mL and 3.15 ng/mL
AUCt dose normalised (male rats, inhalation): 202 ng·h/mL
time up to which plasma concentrations remained quantifiable (male rats, inhalation): 48 h
Cmax (maximum mean plasma concentration) (male rats, single 2 hr inhalation of nebulised aqueous suspension, nominal dose 2.2 mg/kg, 2.2 mg/kg): 8.59 ng/mL
AUCt (male rats, single 2 hr inhalation, nominal dose 2.2 mg/kg, 0-48 hr, 2.2 mg/kg): 230 ng·h/mL
Tmax (male rats, single 2 hr inhalation, nominal dose 2.2 mg/kg): 6 h

— patent US12491182B2, “Polymorphs of triazole antifungal compound PC945” (Pulmocide Limited, priority 2019, dated 2025)
